The nature of data set [1]: Pharmacokinetic study in rats. The format is in vivo. The conditions noted are these: 5 mg/kg i.v. As for the experimental part:
Male Sprague-Dawley rats weighing 300–400 g each (8–12 weeks old) were obtained from BioLASCO, Taiwan Co., Ltd., Ilan, Taiwan. Animals were surgically prepared with a jugular-vein cannula one day prior to dosing and fasted overnight (∼18–20 h) prior to dosing. Water was available ad libitum throughout the experiment. Single 5 mg/kg dose of BPR1K653, as a DMA/PEG (20/80, v/v) solution, was separately administered to groups of 3 rats each intravenously by a bolus injection via the jugular-vein cannula. At 0 (prior to dosing), 2, 5, 15 and 30 min, and at 1, 2, 4, 6, 8 and 24 h after dosing, a blood sample (0.15 mL) was collected from each animal via the jugular-vein cannula and stored in ice (0–4°C). Plasma was separated from the blood by centrifugation (14,000 g for 15 min at 4°C in a Beckman Model Allegra™ 6R centrifuge) and stored in a freezer (−20°C). All samples were analyzed for the parent drug by LC-MS/MS. LC/MS/MS conditions: The chromatographic system consisted of an Agilent 1200 series LC system and an Agilent ZORBAX Eclipse XDB-C8 column (5 µm, 3.0×150 mm) was connected to a MDS Sciex API3000 tandem mass spectrometer, which was equipped with a Turbo V™ ESI in the positive scanning mode at 600°C. Data was acquired via the multiple reactions monitoring (MRM) system. The MS/MS ion transitions were monitored at m/z of 541.4/106.4 for BPR1K653. The collision energy of 58.0 V was used for the analyst, BPR1K653. A gradient HPLC method was employed for the separation. Mobile phase A consisted of water containing 0.1% formic acid, and mobile phase B consisted of acetonitrile. The gradient profile was shown as follows (min/%B): 0.0–1.2/5, 1.3–3.9/95, 4.0–5.0/5. The flow rate was set to be 1.5 mL/min. The auto-sampler was programmed to inject 15 µL sample aliquots in every 5 min. The retention time of BPR1K653 was 2.39 min. Plasma concentration data were analyzed with non-compartmental method.

In another data set the test system is HONE-1 cells. Briefly: Caspase-3/-7 activity imaging, HONE-1. The format is cell-based, Human. The conditions noted are these: HONE-1, 60 h. How it is done: Caspase-3/-7 activity was analyzed with the MagicRed™ DEVD real-time caspase activity detection kit (catalog number #935, Immunochemistry Technologies LLC, Bloomington, MN). Briefly, cells were cultured in chamber-slides and incubated with test agents for various durations. Cells were then incubated with the Caspase-3/-7 substrate MR-(DEVD2) in culture medium for 1 hour, and then co-incubated with Hoechst 33342 for 15 min. Cells were viewed with a UV-enabled inverted-microscope at an excitation wavelength of 540 nm–560 nm and emission at 610 nm. Experiments were repeated independently at least two times.

The next data set concerns the target T1, EGFR (Homo sapiens, UniProt P00533).
T1 construct: GST-tagged EGFR (residues G696-G1022) containing kinase domain; GST; made in house; host or cells: Sf9 insect cells
The data set is described as follows: Kinase inhibition assay, EGFR. In kind it is biochemical. How it is done: EGFR – The recombinant GST-tagged EGFR (residues G696-G1022) containing kinase domain was expressed in Sf9 insect cells. The kinase assay was carried out in 96-well plates with the tested compound at 37°C for 60 min.
(§1) Composition of the reaction buffers used in different kinase inhibitory assays is described in Figure S3.
25 mM Tris pH 7.4 (EGFR), 10 m M MgCl2, 4 mM MnCl2, 0.5 mM Na3VO4, 2 mM DTT, 0.02% Triton X100, 0.01% BSA, […], 2 mM polyGlu4:Tyr peptide, 80~500 ng recombinant EGFR.

The subject of data set [2] is various human cancer cell lines. The data set is described as follows: Clonogenic assay, panel of cancer cell lines. To be noted: for IC50: Homo sapiens. In kind it is cell-based. As for the experimental part:
Human lung adenocarcinoma A549 cells and NTUB1 bladder cancer cells were maintained in RPMI supplied with 10% fetal bovine serum. KB-derived MDR1-expressing cell lines (i.e. KB-VIN10 and KB-S15) and NTUB1-dervided MDR1-expressing cell line (i.e. NTU0.017) were maintained in growth medium supplemented with 10 nM vincristine, 15 nM and 17 nM paclitaxel respectively. […] KB-derived MRP1-expressing cell line, KB-7D, was maintained in growth medium supplemented with 7 µM VP-16.
Two hundred cells in logarithmic growth phase were seeded in a 6-well plate. The cells were exposed to various concentrations of the test drugs for a three-generation period. At the end of the incubation period, cells were fixed and stained with 50% ethanol containing 0.5% methylene blue for 30 min. The plates were washed five times with water and allowed to air-dry. Colonies were countered manually. The IC50 value resulting from 50% inhibition of cell growth was calculated graphically as a comparison with the growth of the control group. Each value represents the average of at least three independent experiments run in triplicates.

In the next data set the target is T2, VEGFR1 (Homo sapiens, UniProt P17948).
T2 construct: GST-tagged VEGFR1 (residues R781-I1338); GST; made in house; host or cells: Sf9 insect cells
T2 sequence (P17948 781-1338): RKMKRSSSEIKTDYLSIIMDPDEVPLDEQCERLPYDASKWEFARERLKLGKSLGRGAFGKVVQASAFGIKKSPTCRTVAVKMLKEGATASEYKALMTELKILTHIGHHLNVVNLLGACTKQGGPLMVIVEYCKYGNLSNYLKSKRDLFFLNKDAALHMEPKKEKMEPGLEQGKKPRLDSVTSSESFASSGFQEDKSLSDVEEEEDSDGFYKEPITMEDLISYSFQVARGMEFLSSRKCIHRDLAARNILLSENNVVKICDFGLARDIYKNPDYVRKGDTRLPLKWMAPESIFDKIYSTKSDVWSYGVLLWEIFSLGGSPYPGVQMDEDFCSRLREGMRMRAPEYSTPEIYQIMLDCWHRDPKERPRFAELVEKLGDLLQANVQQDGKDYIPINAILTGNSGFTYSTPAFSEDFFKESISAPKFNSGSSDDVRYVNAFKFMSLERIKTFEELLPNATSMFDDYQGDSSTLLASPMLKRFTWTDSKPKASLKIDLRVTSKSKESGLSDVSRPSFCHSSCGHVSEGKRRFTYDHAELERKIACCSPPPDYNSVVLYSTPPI
The data set is described as follows: Kinase inhibition assay, VEGFR1. The format is biochemical. As for the experimental part:
VEGFR1/2 – The recombinant GST-tagged VEGFR1 (residues R781-I1338) or VEGFR2 (residues V789-V1356) containing kinase domain were expressed in Sf9 insect cells. The kinase assay was carried out in 96-well plates with the tested compound at 30°C for 120 min.
as §1
25 mM HEPES pH 7.4, 10 mM MgCl2, 4mM MnCl2, 0.5mM Na3VO4, 2 mM DTT, 0.02% Triton X100, 0.01% BSA, 1 mM ATP, 2 mM polyGlu4:Tyr peptide, 50~100 ng recombinant VEGFR1 or VEGFR2.

The target of the next data set is T3, ALK (Homo sapiens, UniProt Q9UM73).
T3 construct: His-tagged ALK (residues V1058-P1620) containing kinase domain; His; made in house; host or cells: Sf9 insect cells
T3 sequence (Q9UM73 1058-1620): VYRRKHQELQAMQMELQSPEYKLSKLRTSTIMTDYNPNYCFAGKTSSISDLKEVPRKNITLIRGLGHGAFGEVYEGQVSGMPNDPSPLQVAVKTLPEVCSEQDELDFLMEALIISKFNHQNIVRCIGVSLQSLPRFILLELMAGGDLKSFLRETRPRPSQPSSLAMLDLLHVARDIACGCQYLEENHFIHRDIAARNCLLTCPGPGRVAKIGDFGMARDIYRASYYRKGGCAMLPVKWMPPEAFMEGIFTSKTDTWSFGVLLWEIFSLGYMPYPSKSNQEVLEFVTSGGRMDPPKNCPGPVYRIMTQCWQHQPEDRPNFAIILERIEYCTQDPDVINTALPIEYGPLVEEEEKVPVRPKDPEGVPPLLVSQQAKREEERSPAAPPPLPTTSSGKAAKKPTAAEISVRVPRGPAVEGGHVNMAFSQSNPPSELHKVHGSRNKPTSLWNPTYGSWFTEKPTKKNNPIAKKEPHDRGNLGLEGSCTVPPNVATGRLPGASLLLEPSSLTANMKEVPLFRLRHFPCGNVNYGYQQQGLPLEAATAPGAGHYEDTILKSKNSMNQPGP
The data set is described as follows: Kinase inhibition assay, ALK. The format is biochemical. How it is done:
ALK – The recombinant His-tagged ALK (residues V1058-P1620) containing kinase domain was expressed in Sf9 insect cells. The kinase assay was carried out in 96-well plates with the tested compound at 30°C for 120 min.
as §1
25 mM HEPES pH 7.4, 10 mM MgCl2, 4 mM MnCl2, 0.5 mM Na3VO4, 2 mM DTT, 0.02% Triton X100, 0.01% BSA, 1 μM ATP, 2 μM polyGlu4:Tyr peptide, 50~100 ng recombinant ALK.

“And” between values parts separate entries of the source, which are not always exact repeats. Identical values can stand only once. Like-named read-outs stand apart in the source and are kept apart here.

By AUC(0-inf) is commonly meant total exposure, with the tail of the curve extrapolated. One may read the clearance as a measure of how efficiently the substance is removed, as volume per time.

T1 sequence (P00533 696-1022): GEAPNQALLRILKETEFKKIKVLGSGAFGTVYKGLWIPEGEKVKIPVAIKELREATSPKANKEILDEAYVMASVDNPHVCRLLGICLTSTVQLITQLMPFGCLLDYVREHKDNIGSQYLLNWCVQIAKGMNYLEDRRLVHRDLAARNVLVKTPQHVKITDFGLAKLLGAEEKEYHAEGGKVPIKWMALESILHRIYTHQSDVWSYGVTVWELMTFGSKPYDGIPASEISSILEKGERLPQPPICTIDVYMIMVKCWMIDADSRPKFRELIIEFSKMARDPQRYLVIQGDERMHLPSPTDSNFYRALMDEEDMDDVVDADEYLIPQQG

For the compound `CN(C)Cc1ccccc1NC(=O)Nc1ccc(CCNc2ncnc3oc(-c4ccccc4)c(Cl)c23)cc1` [BPR1K653], the “maximum plasma concentration above the in vitro kinase inhibition IC50 of Aurora-A” value in data set [1] was “more than 80 fold”. In data set [1], the “maximum plasma concentration above the in vitro kinase inhibition IC50 of Aurora-B” value is listed as more than 200 fold. Further, the maximum plasma concentration in data set [1] (at 2 min after dosing, 5 mg/kg) is 10 µM and 5463 ng/mL. In addition, in data set [1] (male, Sprague-Dawley, rat, plasma, iv, read-out: Area under the curve (AUC(0-inf))), the AUC(0-inf) is 1750 ng·h/mL. Besides, in data set [1] (male, Sprague-Dawley, rat, plasma, iv, read-out: Plasma half life (t1/2) (converted)), the half-life is 234 min. Also, in data set [1] (male, Sprague-Dawley, rat, plasma, iv, read-out: Total body clearance (CL)), the clearance came to 49.3 mL/min/kg. Besides, the Vd in data set [1] (male, Sprague-Dawley, rat, plasma, iv, read-out: Volume of distribution at the steady state (Vss)) was determined as 10.6 ± 5.1 L/kg. Also, the concentration at 24 h in data set [1] (male, Sprague-Dawley, rat, plasma, iv, 5 mg/kg, read-out: estimated plasma concentration 24 h after dosing) was 3.9 nM and 2.1 ng/mL. In the data set on HONE-1 cells, the “apoptosis, caspase-3/-7 activity” value is given as “induced apoptosis”. The IC50 against EGFR is more than 10 µM; in data set [2] (A549, HONE-1, OECM-1, KB, HT29, NTUB1, MV4-11, IM9, read-out: IC50 against various types of cancer cells), less than 500 nM; in data set [2] (read-out: IC50 in all tested p53-wildtype/-negative/-mutant cancer cell lines) it was less than 20 nM; against VEGFR1 it was more than 10 µM; against ALK it was more than 10 µM. For the same compound, in data set [2] (MDR-negative and MDR1-expressing cancer cells, verapamil 10 µM, data not shown), the “effect of verapamil treatment on sensitivity” value is given as “could not further increase the sensitivity to BPR1K653”.

The values are drawn from PMC3160846 (PLoS ONE, 2011).
